Measurements reported in publication PMC2748165 (Biochemical pharmacology, 2009).

Experiments:
[1] = target: T1, P-gp (Homo sapiens, UniProt P08183); assay: in vitro
[2] = dual perfusion of human placental lobule; cited from earlier work
[3] = target: T1, P-gp; type: biochemical
[4] = test system: P-gp of CEM leukemia cells; conditions: cited from earlier work
[5] = target: T1, P-gp; assay: Inhibition of [3H]-paclitaxel uptake by placental inside-out vesicles
[6] = placental IOVs 0.05 mg/mL, 20–500 nM [3H] paclitaxel, n = 10, mean ± SEM

T1 sequence (P08183 whole entry, the tested form may be a part): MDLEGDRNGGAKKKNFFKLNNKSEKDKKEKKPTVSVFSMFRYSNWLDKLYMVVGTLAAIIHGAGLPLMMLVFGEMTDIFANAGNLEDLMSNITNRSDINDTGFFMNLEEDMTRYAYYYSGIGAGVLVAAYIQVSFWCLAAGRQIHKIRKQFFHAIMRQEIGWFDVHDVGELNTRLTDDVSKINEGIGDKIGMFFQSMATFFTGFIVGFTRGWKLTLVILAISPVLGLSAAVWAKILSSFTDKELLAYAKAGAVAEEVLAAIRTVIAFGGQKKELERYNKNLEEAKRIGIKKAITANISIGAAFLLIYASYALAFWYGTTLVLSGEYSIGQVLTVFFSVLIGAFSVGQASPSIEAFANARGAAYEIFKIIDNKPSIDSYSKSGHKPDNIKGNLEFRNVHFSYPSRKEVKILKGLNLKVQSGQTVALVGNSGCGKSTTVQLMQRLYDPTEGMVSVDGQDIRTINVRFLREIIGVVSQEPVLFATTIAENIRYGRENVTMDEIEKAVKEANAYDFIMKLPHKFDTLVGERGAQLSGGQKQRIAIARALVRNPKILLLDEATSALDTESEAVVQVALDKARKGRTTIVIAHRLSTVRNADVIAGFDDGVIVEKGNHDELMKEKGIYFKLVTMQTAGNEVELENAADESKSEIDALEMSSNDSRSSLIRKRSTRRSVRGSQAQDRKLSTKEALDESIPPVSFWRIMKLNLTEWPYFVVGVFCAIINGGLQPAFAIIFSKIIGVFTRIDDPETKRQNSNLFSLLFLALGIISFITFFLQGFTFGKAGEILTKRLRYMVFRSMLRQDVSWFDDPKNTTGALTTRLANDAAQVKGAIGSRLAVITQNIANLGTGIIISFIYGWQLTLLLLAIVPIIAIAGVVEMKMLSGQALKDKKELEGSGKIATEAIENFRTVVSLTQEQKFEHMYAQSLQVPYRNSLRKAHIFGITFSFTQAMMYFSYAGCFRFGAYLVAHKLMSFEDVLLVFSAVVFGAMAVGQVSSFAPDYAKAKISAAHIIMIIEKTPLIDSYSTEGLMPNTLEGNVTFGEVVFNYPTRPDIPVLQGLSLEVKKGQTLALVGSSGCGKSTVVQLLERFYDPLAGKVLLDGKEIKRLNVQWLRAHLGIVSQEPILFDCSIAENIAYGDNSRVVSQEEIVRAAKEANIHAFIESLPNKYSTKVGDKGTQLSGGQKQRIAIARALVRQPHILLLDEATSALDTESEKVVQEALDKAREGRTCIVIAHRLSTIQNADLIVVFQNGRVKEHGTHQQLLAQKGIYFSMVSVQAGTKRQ

Question: What does the source list for `CCC(=O)C(CC(C)N(C)C)(c1ccccc1)c1ccccc1` (stereo not drawn) [methadone]?
Answer: inhibition at 1 min [1]: 60%; rate of transfer from the maternal to fetal circuit [2]: 29.4 ± 4.6%

Question: With `CC(=O)O[C@H]1C(=O)[C@@]2(C)[C@H]([C@H](OC(=O)c3ccccc3)[C@]3(O)C[C@H](OC(=O)[C@H](O)[C@@H](NC(=O)c4ccccc4)c4ccccc4)C(C)=C1C3(C)C)[C@]1(OC(C)=O)CO[C@@H]1C[C@@H]2O` [paclitaxel] as the molecule, how does the “ATP dependent uptake of [3H]-paclitaxel into IOVs, mean” value ([3]; 200 individual placentas, mean) read?
Answer: Its value is 23 pmol*mg protein^−1min^−1.

Question: What about the “ATP dependent uptake of [3H]-paclitaxel into IOVs, range” value ([3]; 200 individual placentas, range) of the same molecule?
Answer: The value was 1–140 pmol*mg protein^−1min^−1.

Question: What about the “Vmax of ATP-dependent [3H] paclitaxel uptake” value [3, 6] of the same molecule?
Answer: Its value is 20 ± 3 pmol*mg protein^−1min^−1.

Question: What about the “apparent Kt of ATP-dependent [3H] paclitaxel uptake” value [3, 6] of the same molecule?
Answer: Its value is 66 ± 38 nM.

Question: What about the “apparent Kt of paclitaxel transport, CEM cells overexpressing P-gp” value ([4]; cells passaged in vinblastine, multidrug resistant, overexpressing P-gp) of the same molecule?
Answer: The value was 63 ± 46 nM.

Question: What about the “Kt of paclitaxel transport, parental CEM cells” value ([4]; parental cells) of the same molecule?
Answer: The value was 144 ± 56 nM.

Question: Which inhibition at 1 min, 2 mM [5] does the source give for `COc1ccc(CCN(C)CCCC(C#N)(c2ccc(OC)c(OC)c2)C(C)C)cc1OC` (stereo not drawn) [verapamil] here?
Answer: The inhibition at 1 min, 2 mM was 99 ± 9%.
